Laboratory results from patent US20150247149A1, “Detecting and Treating Liver Damage” (The Regents of the University of California, priority 2012, published 2015).

Tested on: VNN1
Experiment: VNN1 expression in HepG2 and HepG2-derived MPs (Western blotting, flow cytometry, QPCR)
Assay type: cell-based, human
Conditions: HepG2 exposed to 0.25 mM FFA
Description: HepG2 were trypsinized and 8×10^5 cells were seeded in a 6-well plate. To knockdown VNN1 or PPARα in hepatocytes, HepG2 were incubated with 50 nM of silencing RNA (siRNA) for VNN1 or PPARα and control siRNA (Ctrl siRNA) dissolved in Lipofectamine 2000 (Life Technologies, Carlsbad, Calif., USA). Transfection was performed according to the manufacturer instructions. After 48 h post transfection, cells were treated with 0.25 mM of palmitic acid for 24 h and microparticles were isolated from the supernatant by ultracentrifugation. The efficiency of transfection has been confirmed in hepatocytes and microparticles by Western blotting as described in the “Protein analysis” paragraph. […] In vivo VNN1 knockdown experiments during experimental NASH were assessed by weekly injection of VNN1 stealthRNA (Life Technology), control siRNA (Ctrl siRNA) or PBS as vehicle (mock) in C57BL/6 mice fed with the MCD diet for 6 weeks. […]
Tissue (liver, intestine, spleen and kidney) from MCD- and MCS-fed mice (Casp-3−/−, WT, treated with VNN1 siRNA and controls) was homogenized using the FastPrep 24 bead homogenization system. […] The concentration and purity of RNA was assessed by NanoDrop (Thermo Scientific). Quantitative Real time PCR was performed on a BioRad Cycler (BioRad) by using SYBRGreen real time PCR master mix (Kapabiosystem, Woburn, Mass., USA) according to the manufacturer instructions. […]

Structure (SMILES)	VNN1 expression in MPs from FFA-treated cells (Western blot)
CCCCCCCCCCCCCCCC(=O)O [palmitic acid]	expressed
CCCCCCCC/C=C\CCCCCCCC(=O)O [oleic acid]	not
